What was measured:
[1] = tested on: HLA-A*0201 transgenic HHD mice; assay: Tetramer-positive CD8 T cells in draining lymph nodes of vaccinated HHD mice; assay type: in vivo, mouse; conditions: for Responding mice (response to at least one peptide) / Frequency of strong responses (% of tetramer-positive CD8 cells at least twice the cutoff value; ++): HHD mice vaccinated with polypeptide; for Trispecific response: HHD mice, response to all three peptides
Experimental: HHD mice were injected subcutaneously with 100 μg of nonamer/decamer peptides, and with 240 μg of polypeptide emulsified in incomplete Freund's adjuvant (IFA) plus 150 μg of the I-A^b restricted HBVcore128 T-helper epitope. Eleven days later spleen cells (5×10^7 cells in 10 ml) from immunized mice were stimulated in vitro with peptide (10 μM) in RPMI 1640+10% FCS for five days. The CTL lines were established by weekly re-stimulation in vitro with irradiated spleen cells in the presence of diminishing peptide concentrations (1 to 0.1 μM) and 50 U/ml IL-2 (Proleukin, Chiron Corp., Emeryville, Calif.).
For tetramer labeling, cells from inguinal and para-aortic lymph nodes (LN) of immunized mice were stained with 15 μg/ml PE-coupled HLA-A2/TERT988Y, HLA-A2/MAGE-A248V9 and HLA-A2/HER-2/neu402Y tetramers (Proimmune, Oxford, UK) in the presence of an anti-Fc receptor antibody (clone 2.4 G2) in 20 μl of PBS, 2% FCS for 1 h at room temperature. The cells were washed once in PBS, 2% FCS and then stained with anti-CD44-FITC (clone 1M.178), anti-TCRβ-cychrome (clone H57) and anti-CD8α-APC (clone 53.6.7) (BD Biosciences, Le Pont de Claix, France) in 50 μl of PBS, 2% FCS for 30 min at 4° C. The cells were then washed once in PBS, 2% FCS and immediately analyzed in a FACSCalibur® flow cytometer (Becton Dickinson, San Jose, Calif., USA).
The simplest way to stimulate a polyspecific CTL response in vivo would be to inject a mixture of the relevant peptides. Therefore, the inventors examined whether HHD mice vaccinated with an equimolar mixture of peptides HER-2/neu402Y, TERT988Y and MAGE-A248V9 developed a polyspecific response in vivo. The immune response was evaluated by measuring the frequency of peptide-specific CD8 T cells in the lymph nodes draining the injection site seven days after vaccination, using specific tetramers. Before use, each tetramer was validated with peptide-specific CTL lines as previously described (Miconnet et al., 2002). A positive response was recorded when the percentage of tetramer-positive CD8 cells was higher than the mean percentage+3 standard deviations of tetramer-positive CD8 cells in six naive mice (0.16% for MAGE-A248V9, 0.13% for HER-2/neu402Y and 0.16% for TERT988Y). Eight mice were vaccinated with the peptide mixture in two independent experiments (Table 2). […] Three mice responded to one peptide and five responded to two peptides. Responses to MAGE-A248V9 were more frequent (6/8 mice) than responses to HER-2/neu402Y (4/8 mice) or TERT988Y (3/8 mice).
HHD mice were vaccinated with each polypeptide, and CD8 T cells specific for the individual peptides were identified in draining lymph nodes by using specific tetramers. All six polypeptide variants were immunogenic in HHD mice (i.e., they generated a response to at least one peptide) but the frequency of responding mice varied from one variant to the other. The most immunogenic variants were Poly-1, Poly-3 and Poly-6, with 100%, 87% and 83% of responding mice, respectively (Table 6). Poly-2, Poly-4 and Poly-5 induced a response in respectively 57%, 62% and 62% of vaccinated mice. The frequency of strong responses (% of tetramer-positive CD8 cells at least twice the cutoff value; designated ++) was highest with Poly-6 (41% of all responses), Poly-3 (30% of all responses) and Poly-1 (25% of all responses). The responses were directed against MAGE-A248V9 in 74% of responding mice, HER-2/neu402Y in 71% and TERT988Y in 55%.

[2] = tested on: PBMC from healthy HLA-A*0201 donors; assay: In vitro stimulation of healthy donor PBMC, intracellular IFNγ labeling of CD8 cells; assay type: cell-based, human; conditions: for Donors with responses to all three peptides (trispecific): healthy donor PBMC, IFNγ-producing CD8 cells
Experimental: PBMC were collected by leukapheresis from healthy HLA-A*0201 volunteers. Dendritic cells (DC) were produced from adherent cells (2×10^6 cells/ml) cultured for seven days with 500 IU/ml GM-CSF (Leucomax®, Schering-Plough, Kenilworth, N.J.) and 500 IU/ml IL-4 (R&D Systems, Minneapolis, Minn.) in complete medium (RPMI 1640 supplemented with 10% heat-inactivated human AB serum, […] and antibiotics). On day 7, DC were pulsed with 10 μM peptides or polypeptides for 2 h; the maturation agents Poly I:C (Sigma, Oakville, Canada) at 100 ng/ml, and anti-CD40 mAb (clone G28-5, ATCC, Manassas, Va.) at 2 μg/ml were added to the culture and DCs were further incubated at 37° C. overnight or for up to 48 hours. Mature DC were then irradiated (3500 rads). CD8+ cells were purified by positive selection with CD8 MicroBeads (Miltenyi Biotec, Auburn, Calif.) according to the manufacturer's instructions. CD8^+ cells (2×10^5)+CD8^− cells (6×10^4) were stimulated with 2×10^4 peptide-pulsed DC in complete culture medium supplemented with 1000 IU/ml IL-6 and 5 IU/ml IL-12 (R&D Systems, Minneapolis, Minn.) in round-bottomed 96-well plates. From day 7, cultures were restimulated weekly with peptide-loaded DC in the presence of 20 IU/ml IL-2 (Proleukin, Chiron Corp., Emeryville, Calif.) and 10 ng/ml IL-7 (R&D Systems, Minneapolis, Minn.). After the third restimulation, CD8 cells were tested in an IFN-γ release assay.
T cells (10^5) were incubated with 2×10^5 T2 cells loaded with stimulating peptide in the presence of 20 μg/ml Brefeldin-A (Sigma, Oakville, Canada). Six hours later they were washed, stained with r-phycoerythrin-conjugated anti-CD8 antibody (Caltag Laboratories, Burlingame, Calif.) in PBS for 25 min at 4° C., washed again, and fixed with 4% PFA. The cells were then permeabilized with PBS, 0.5% BSA, 0.2% saponin (Sigma, Oakville, Canada), and labeled with an allophycocyanin-conjugated anti-IFNγ mAb (PharMingen, Mississauga, Canada) for 25 min at 4° C. before analysis with a FACSCalibur™ flow cytometer (Becton Dickinson, Mountain View, Calif.).
The inability of the peptide mixture to stimulate a trispecific CD8 T cell response was confirmed in vitro with human cells. […] PBMC activation was evaluated by measuring the percentage of IFNγ-producing CD8 cells by means of intracellular labeling. A positive response was recorded when the percentage of activated PBMC was at least twice that obtained with an irrelevant peptide. […]
In vitro immune responses were assessed by measuring the percentage of CD8 cells producing IFNγ after specific peptide activation. […]

Row | Substance | Responding mice (response to at least one peptide) ([1]; tetramers) | Trispecific response [1] | Frequency of strong responses (% of tetramer-positive CD8 cells at least twice the cutoff value; ++) [1] | Donors with responses to all three peptides (trispecific) [2] | Immunogenicity in HHD mice, in words ([1]; response to at least one peptide) | Mice responding simultaneously to all three peptides (trispecific response), in words ([1]; vaccinated HHD mice, tetramers) | Strength of responses in human donor cells, in words ([2]; against MAGE-A248V9 in donors #D7017 and #D7225, against HER-2/neu402Y in donor #D7744) | Peptides the donor's CD8 cells responded to ([2]; donor #D7225)
1 | YLEEITGYL-YLEYRQVPV-YLQVNSLQTV (SEQ ID No: 6) (YLEEITGYLYLEYRQVPVYLQVNSLQTV; Poly-4) [polypeptide variant, arrangement N-M-T] | 62% | 37.5 % of vaccinated mice | – | – | – | – | – | –
2 | YLEEITGYL-YLQVNSLQTV-YLEYRQVPV (SEQ ID No: 5) (YLEEITGYLYLQVNSLQTVYLEYRQVPV; Poly-3) [polypeptide variant, arrangement N-T-M] | 87% | 12.5 % of vaccinated mice | 30 % of all responses | – | – | – | – | –
3 | YLEYRQVPV-YLEEITGYL-YLQVNSLQTV (SEQ ID No: 3) (YLEYRQVPVYLEEITGYLYLQVNSLQTV; Poly-1) [polypeptide variant of MAGE-A248V9, HER-2/neu402Y and TERT988Y, arrangement M-N-T] | 100% | 28.5 % of vaccinated mice | 25 % of all responses | 25 % of donors | – | – | – | –
4 | YLEYRQVPV-YLQVNSLQTV-YLEEITGYL (SEQ ID No: 4) (YLEYRQVPVYLQVNSLQTVYLEEITGYL; Poly-2) [polypeptide variant, arrangement M-T-N] | 57% | – | – | – | very weakly immunogenic | did not induce a trispecific response in any mice | – | –
5 | YLQVNSLQTV-YLEEITGYL-YLEYRQVPV (SEQ ID No: 7) (YLQVNSLQTVYLEEITGYLYLEYRQVPV; Poly-5) [polypeptide variant, arrangement T-N-M] | 62% | 25 % of vaccinated mice | – | – | – | – | – | –
6 | YLQVNSLQTV-YLEYRQVPV-YLEEITGYL (SEQ ID No: 2) (YLQVNSLQTVYLEYRQVPVYLEEITGYL; Poly-6) [polypeptide variant, arrangement T-M-N] | 83% | 67 % of vaccinated mice | 41 % of all responses | 80 % of donors | – | – | strongest responses | all three peptides

From patent publication US7973128B2, “Immunogenic polypeptide composed of tumor antigen-derived optimized cryptic peptides, and uses thereof” (Vaxon Biotech, priority 2005, dated 2011)
